From PubChem BioAssay (NCI)
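Growth conditions: 96-well plates. Treatment: test compound, 48 hours, 5 concentrations. Analysis: linear interpolation between bracketing concentrations; unreached endpoints set to highest concentration. The concentration for 50% growth inhibition is given as GI50. TGI: total growth inhibition.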

Tests used:
Test in all cases: NCI-60 cell line screen, 48 h
HL-60(TB) leukemia = system: HL-60(TB) leukemia
SF-539 CNS = system: SF-539 CNS
HS 578T breast = system: HS 578T breast
TK-10 renal = system: TK-10 renal
MDA-MB-435 = system: MDA-MB-435
NCI-H23 lung = system: NCI-H23 lung
CAKI-1 renal = system: CAKI-1 renal
M14 melanoma = system: M14 melanoma
RPMI-8226 leukemia = system: RPMI-8226 leukemia
OVCAR-3 ovarian = system: OVCAR-3 ovarian
KM12 colon = system: KM12 colon
NCI-H460 lung = system: NCI-H460 lung
SNB-19 CNS = system: SNB-19 CNS
HCT-116 colon = system: HCT-116 colon
786-0 renal = system: 786-0 renal
EKVX NSCLC = system: EKVX NSCLC
SK-MEL-2 melanoma = system: SK-MEL-2 melanoma
K-562 leukemia = system: K-562 leukemia
NCI-H226 lung = system: NCI-H226 lung
MOLT-4 leukemia = system: MOLT-4 leukemia
NCI-H522 lung = system: NCI-H522 lung
SK-OV-3 ovarian = system: SK-OV-3 ovarian
OVCAR-5 ovarian = system: OVCAR-5 ovarian
DU-145 prostate = system: DU-145 prostate
U251 CNS = system: U251 CNS
SN12C renal = system: SN12C renal
LOX IMVI melanoma = system: LOX IMVI melanoma
NCI/ADR-RES ovarian = system: NCI/ADR-RES ovarian
OVCAR-4 ovarian = system: OVCAR-4 ovarian
MDA-MB-231 breast = system: MDA-MB-231 breast
SF-295 CNS = system: SF-295 CNS
UACC-257 melanoma = system: UACC-257 melanoma
HCC-2998 colon = system: HCC-2998 colon
A549 NSCLC = system: A549 NSCLC
SR leukemia = system: SR leukemia
SK-MEL-5 melanoma = system: SK-MEL-5 melanoma
HOP-62 NSCLC = system: HOP-62 NSCLC
OVCAR-8 ovarian = system: OVCAR-8 ovarian
BT-549 breast = system: BT-549 breast
PC-3 prostate = system: PC-3 prostate
HCT-15 colon = system: HCT-15 colon
SNB-75 CNS = system: SNB-75 CNS
MCF7 breast = system: MCF7 breast
HT29 colon = system: HT29 colon
A498 renal = system: A498 renal
IGROV1 ovarian = system: IGROV1 ovarian
RXF 393 renal = system: RXF 393 renal
MALME-3M melanoma = system: MALME-3M melanoma
SK-MEL-28 melanoma = system: SK-MEL-28 melanoma
UO-31 renal = system: UO-31 renal
ACHN renal = system: ACHN renal
SF-268 CNS = system: SF-268 CNS
HOP-92 NSCLC = system: HOP-92 NSCLC
SW-620 colon = system: SW-620 colon
T-47D breast = system: T-47D breast
COLO 205 colon = system: COLO 205 colon
CCRF-CEM leukemia = system: CCRF-CEM leukemia
UACC-62 melanoma = system: UACC-62 melanoma

## C/C(=N\NC(=O)c1ccncc1)c1ccccc1O
HL-60(TB) leukemia
  GI50: 2960 nM
  TGI: 11.6 µM
SF-539 CNS
  GI50: 2780 nM
  TGI: > 100 µM
HS 578T breast
  GI50: 26.7 µM
  TGI: > 100 µM
TK-10 renal
  GI50: 3.03 µM
  TGI: > 100 µM
MDA-MB-435
  GI50: 6.37 µM
  TGI: > 100 µM
NCI-H23 lung
  GI50: 4.34 µM
  TGI: > 100 µM
CAKI-1 renal
  GI50: 805 nM
  TGI: 21.4 µM
M14 melanoma
  GI50: 4.95 µM
  TGI: 89.1 µM
RPMI-8226 leukemia
  GI50: 4.68 µM
  TGI: > 100 µM
OVCAR-3 ovarian
  GI50: 3.35 µM
  TGI: > 100 µM
KM12 colon
  GI50: 2950 nM
  TGI: > 100 µM
NCI-H460 lung
  GI50: 683 nM
  TGI: > 100 µM
SNB-19 CNS
  GI50: 8.23 µM
  TGI: > 100 µM
HCT-116 colon
  GI50: 2320 nM
  TGI: > 100 µM
786-0 renal
  GI50: 2940 nM
  TGI: 21.3 µM
EKVX NSCLC
  GI50: 2340 nM
  TGI: > 100 µM
SK-MEL-2 melanoma
  GI50: > 100 µM
  TGI: > 100 µM
K-562 leukemia
  GI50: 5.78 µM
  TGI: > 100 µM
NCI-H226 lung
  GI50: 6.27 µM
  TGI: > 100 µM
MOLT-4 leukemia
  GI50: 2350 nM
  TGI: > 100 µM
NCI-H522 lung
  GI50: 2820 nM
  TGI: > 100 µM
SK-OV-3 ovarian
  GI50: 4.84 µM
  TGI: > 100 µM
OVCAR-5 ovarian
  GI50: 4.87 µM
  TGI: > 100 µM
DU-145 prostate
  GI50: 4.85 µM
  TGI: > 100 µM
U251 CNS
  GI50: 3.31 µM
  TGI: > 100 µM
SN12C renal
  GI50: 4.79 µM
  TGI: > 100 µM
LOX IMVI melanoma
  GI50: 1460 nM
  TGI: > 100 µM
NCI/ADR-RES ovarian
  GI50: 2230 nM
  TGI: > 100 µM
OVCAR-4 ovarian
  GI50: 1940 nM
  TGI: > 100 µM
MDA-MB-231 breast
  GI50: 5.65 µM
  TGI: > 100 µM
SF-295 CNS
  GI50: 1380 nM
  TGI: > 100 µM
UACC-257 melanoma
  GI50: 4.14 µM
  TGI: > 100 µM
HCC-2998 colon
  GI50: 2370 nM
  TGI: 68.7 µM
A549 NSCLC
  GI50: 3.86 µM
  TGI: > 100 µM
SR leukemia
  GI50: 1800 nM
  TGI: > 100 µM
SK-MEL-5 melanoma
  GI50: 3.6 µM
  TGI: 32.2 µM
HOP-62 NSCLC
  GI50: 3.82 µM
  TGI: > 100 µM
OVCAR-8 ovarian
  GI50: 3.05 µM
  TGI: > 100 µM
BT-549 breast
  GI50: 3.79 µM
  TGI: 84.7 µM
PC-3 prostate
  GI50: 8.66 µM
  TGI: > 100 µM
HCT-15 colon
  GI50: 828 nM
  TGI: > 100 µM
SNB-75 CNS
  GI50: > 100 µM
  TGI: > 100 µM
MCF7 breast
  GI50: 3.72 µM
  TGI: > 100 µM
HT29 colon
  GI50: 1600 nM
  TGI: > 100 µM
A498 renal
  GI50: 29 µM
  TGI: > 100 µM
IGROV1 ovarian
  GI50: 1800 nM
  TGI: > 100 µM
RXF 393 renal
  GI50: 8.15 µM
  TGI: > 100 µM
MALME-3M melanoma
  GI50: 5.39 µM
  TGI: 97.3 µM
SK-MEL-28 melanoma
  GI50: 20.9 µM
  TGI: > 100 µM
UO-31 renal
  GI50: 973 nM
  TGI: 28.9 µM
ACHN renal
  GI50: 1640 nM
  TGI: > 100 µM
SF-268 CNS
  GI50: 3.77 µM
  TGI: > 100 µM
HOP-92 NSCLC
  GI50: 2270 nM
  TGI: > 100 µM
SW-620 colon
  GI50: 5.27 µM
  TGI: > 100 µM
T-47D breast
  GI50: 2240 nM
  TGI: > 100 µM
COLO 205 colon
  GI50: 2620 nM
  TGI: > 100 µM
CCRF-CEM leukemia
  GI50: 742 nM
  TGI: > 100 µM
UACC-62 melanoma
  GI50: 3.04 µM
  TGI: 18.9 µM
